The values that follow come from PubChem BioAssay (NCI).

Among the test systems are UACC-257 melanoma; CAKI-1 renal; SK-MEL-2 melanoma; HT29 colon; NCI-H522 lung; LOX IMVI melanoma; A498 renal; SF-539 CNS; 786-0 renal; NCI-H460 lung.
Holding throughout (experiment): NCI-60 cell line screen, 48 h

Several values for one entry are separate records, joined by “and”; a condition that tells them apart may be missing. Equal values may be shown once.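 Following 48 hours of exposure in 96-well plates, responses at five concentrations were used to interpolate endpoints linearly. GI50: concentration for 50% inhibition of growth. TGI denotes the concentration required for complete inhibition of growth.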

As for `CCc1c2c(nc3cc4c(c(N)c13)OCO4)-c1cc3c(c(=O)n1C2)COC(=O)[C@]3(O)CC`, the GI50 in the test on UACC-257 melanoma was 0.199 µM and 0.0583 µM; in the test with CAKI-1 renal it was less than 0.001 µM; in the test with HT29 colon it was 0.0145 µM; with LOX IMVI melanoma, less than 0.001 µM; with A498 renal, 0.00758 µM and 0.0334 µM; in the test with SF-539 CNS, less than 0.001 µM. Besides, in the test with NCI-H460 lung, the GI50 was less than 0.001 µM. Moreover, the TGI in the test on UACC-257 melanoma is 2.58 µM and 2.47 µM; in the test on CAKI-1 renal, 0.00741 µM; in the test with SK-MEL-2 melanoma it was 0.0424 µM; in the test on HT29 colon it was more than 100 µM; in the test with NCI-H522 lung, 1.36 µM and 0.663 µM; in the test on LOX IMVI melanoma, 0.134 µM and 0.19 µM. The TGI in the test with A498 renal is 0.252 µM and 0.459 µM; in the test on SF-539 CNS it was 0.038 µM; in the test on 786-0 renal, more than 100 µM; in the test with NCI-H460 lung it was 0.47 µM and 0.157 µM.
Consider `O=C(CSc1nc2ccccc2nc1-c1ccccc1)Nc1ccc(Cl)cc1`, for which the GI50 with UACC-257 melanoma was more than 100 µM; in the test with CAKI-1 renal, 12.5 µM; with SK-MEL-2 melanoma, 51.7 µM; in the test on HT29 colon, 25.1 µM; in the test with NCI-H522 lung, 15.3 µM; in the test on LOX IMVI melanoma, 38.3 µM. Moreover, the GI50 in the test on A498 renal is 31.4 µM; in the test with SF-539 CNS, 16.3 µM; in the test on 786-0 renal, 16 µM; with NCI-H460 lung it was 11.8 µM. The TGI in the test on UACC-257 melanoma was more than 100 µM; in the test with CAKI-1 renal it was 38.1 µM; in the test with SK-MEL-2 melanoma it was more than 100 µM; in the test on HT29 colon it was more than 100 µM; in the test on NCI-H522 lung, 74.3 µM; with LOX IMVI melanoma, more than 100 µM. The TGI in the test with A498 renal was more than 100 µM; in the test on SF-539 CNS, 36.6 µM; with 786-0 renal, 32.3 µM; with NCI-H460 lung, 36.8 µM.
In the case of `O=C1OC(c2ccccc2)=N/C1=C\c1ccc2ccccc2c1`, the TGI in the test with UACC-257 melanoma, in the test on CAKI-1 renal, with SK-MEL-2 melanoma, with HT29 colon, with NCI-H522 lung and in the test with LOX IMVI melanoma was more than 100 µM throughout. For the same molecule, the TGI in the test with A498 renal, in the test with SF-539 CNS, in the test with 786-0 renal and in the test on NCI-H460 lung was more than 100 µM each time.
Consider `O=C1/C=C/[C@@H](O)[C@@H]2C[C@@H](O)C[C@H]2/C=C/CCC[C@H](CCc2ccc(C(F)(F)F)cc2)O1`, for which the GI50 is 0.182 µM with UACC-257 melanoma; 0.312 µM with CAKI-1 renal; 0.349 µM in the test on SK-MEL-2 melanoma; 0.127 µM in the test on HT29 colon; 0.282 µM in the test on NCI-H522 lung; 0.161 µM with LOX IMVI melanoma. In addition, the GI50 is 0.0533 µM with A498 renal, 0.522 µM in the test on SF-539 CNS, 0.0826 µM in the test with 786-0 renal and 0.388 µM with NCI-H460 lung. The TGI in the test on UACC-257 melanoma was more than 40.2 µM; in the test with CAKI-1 renal, more than 100 µM; with SK-MEL-2 melanoma it was 1.41 µM; in the test on HT29 colon it was 2.1 µM; in the test with NCI-H522 lung it was 0.775 µM; with LOX IMVI melanoma, 0.423 µM. Besides, the TGI is 0.277 µM in the test with A498 renal, more than 100 µM in the test on SF-539 CNS, 0.378 µM with 786-0 renal and more than 55.4 µM in the test with NCI-H460 lung.
With `O=C(Nc1cccc(NC(=O)C(=O)C2CCC3=C(Sc4ccccc4N3)C2=O)n1)C(=O)C1CCC2=C(Sc3ccccc3N2)C1=O` (stereo unspecified), the TGI in the test with UACC-257 melanoma, in the test on CAKI-1 renal, in the test with SK-MEL-2 melanoma, in the test with HT29 colon, in the test on NCI-H522 lung and in the test with LOX IMVI melanoma was more than 100 µM in each case. In addition, the TGI in the test on A498 renal was more than 100 µM; in the test on SF-539 CNS it was 55.1 µM; in the test with 786-0 renal it was more than 100 µM; in the test with NCI-H460 lung it was more than 100 µM.
On to `Cc1ncc(C(=O)Nc2ccc(CN3CCN(C)CC3)c(C(F)(F)F)c2)cc1C#Cc1cnc(N)c2cnccc12`, for which the GI50 in the test on UACC-257 melanoma is 0.0689 µM; with CAKI-1 renal, 0.167 µM; in the test with SK-MEL-2 melanoma, 0.0243 µM; in the test on HT29 colon, 0.021 µM; in the test with NCI-H522 lung, 0.0654 µM; in the test with LOX IMVI melanoma, 0.0335 µM. Also, the GI50 in the test on A498 renal was 0.0511 µM; with SF-539 CNS, 0.193 µM; with 786-0 renal it was 0.225 µM; in the test with NCI-H460 lung it was 0.0647 µM. The TGI came out at 1.29 µM in the test on UACC-257 melanoma; 1.64 µM in the test on CAKI-1 renal; 0.0941 µM in the test with SK-MEL-2 melanoma; 1.19 µM in the test with HT29 colon; 13.1 µM in the test on NCI-H522 lung; 0.158 µM in the test on LOX IMVI melanoma. Moreover, the TGI with A498 renal was determined as 0.3 µM; in the test on SF-539 CNS, 1.29 µM; in the test with 786-0 renal it was 11 µM; with NCI-H460 lung it was 1.54 µM.
In the case of `O=C1/C(=C\c2ccc(F)cc2)CN(C(=O)c2ccc([N+](=O)[O-])cc2)C/C1=C\c1ccc(F)cc1`, the GI50 with UACC-257 melanoma was 4.17 µM; in the test on CAKI-1 renal, 6.64 µM; in the test with SK-MEL-2 melanoma, 20.4 µM; with HT29 colon, 0.517 µM; with NCI-H522 lung, 4.3 µM; in the test with LOX IMVI melanoma, 0.373 µM. Further, the GI50 in the test on A498 renal was 4.4 µM; in the test with SF-539 CNS, 2.93 µM; in the test with 786-0 renal, 1.89 µM; in the test with NCI-H460 lung it was 4.26 µM. Moreover, the TGI was 28.1 µM in the test with UACC-257 melanoma; more than 100 µM with CAKI-1 renal; more than 100 µM with SK-MEL-2 melanoma; 3.52 µM in the test with HT29 colon; 30.7 µM with NCI-H522 lung; 1.47 µM with LOX IMVI melanoma. The TGI is 47 µM in the test with A498 renal, 10.2 µM in the test with SF-539 CNS, 4.32 µM in the test with 786-0 renal and more than 40.4 µM in the test with NCI-H460 lung.
With `O=c1cc(-c2ccccc2)oc2cc(OCC(O)COc3ccc4c(=O)cc(-c5ccccc5)oc4c3)ccc12`, the TGI is more than 100 µM with UACC-257 melanoma; more than 100 µM with CAKI-1 renal; 53.4 µM with SK-MEL-2 melanoma; more than 100 µM in the test on HT29 colon; more than 100 µM with NCI-H522 lung; more than 100 µM in the test with LOX IMVI melanoma. Also, the TGI is more than 100 µM with A498 renal, 57 µM with SF-539 CNS, 52 µM with 786-0 renal and more than 100 µM with NCI-H460 lung.
`O=C(CCCCCCCn1cc(-c2cccnc2)nn1)Nc1ccccc1-c1ccccc1`: the GI50 in the test with UACC-257 melanoma was 7.75 µM; in the test on CAKI-1 renal it was 1.29 µM; with SK-MEL-2 melanoma, 5.52 µM; in the test on HT29 colon, 0.506 µM; in the test with NCI-H522 lung it was 0.0508 µM; in the test with LOX IMVI melanoma, 4.05 µM. Besides, the GI50 in the test with A498 renal was 13.7 µM; in the test with SF-539 CNS it was 0.0522 µM; with 786-0 renal, 4.13 µM; in the test with NCI-H460 lung, 0.674 µM. The TGI in the test on UACC-257 melanoma was 24.9 µM; in the test with CAKI-1 renal it was more than 58.4 µM; with SK-MEL-2 melanoma, 38.1 µM; in the test with HT29 colon it was more than 100 µM; in the test with LOX IMVI melanoma, more than 100 µM; with A498 renal, more than 86.1 µM. Further, the TGI with SF-539 CNS was more than 78.8 µM; in the test with 786-0 renal, more than 100 µM; in the test with NCI-H460 lung, more than 100 µM.
